# Measured values from patent US5321130A, “Unsymmetrical cyanine dyes with a cationic side chain” (priority 1992, dated 1994).
# What was measured:
# [1] = Absorption spectra of free dye in methanol or pH 7.4 buffer; assay type: physicochemical; conditions: no DNA
# Procedure: (§1) The strength of absorption and/or fluorescence is indicated by the extinction coefficient. The maximum extinction coefficient (εmax) for the unbound dyes is calculated from the longest wavelength absorption maximum according to the Beer-Lambert law based on the known concentration of the solutions. The extinction coefficient for the dye bound to DNA is calculated from the change in maximum absorbance compared to the dye in free aqueous solution. Typically the extinction coefficient for both bound and unbound dyes is between about 50,000 M^-1 cm^-1 and about 150,000 M^-1 cm^-1.
# (§2) Solutions of Compounds 1-8 are prepared by accurately weighing 5 mg quantities and dissolving in DMSO (dimethylsulfoxide) to give a 1 mg/ml stock solution. These solutions are diluted 200 fold into either methanol or a pH 7.4 buffer solution comprising 10 mM Tris, 1 mM EDTA and 50 mM NaCl. Each absorption spectrum is recorded on an IBM Instruments 9420 spectrophotometer. The absorption maximum for each dye without the presence of nucleic acid polymers (λA) is tabulated (Table 2). To the solutions of Compounds 1-8 in pH 7.4 buffer is added sufficient calf thymus DNA (Sigma Chemical Co. D-1501) stock solution calculated to yield a ratio of 50 DNA base pairs per dye molecule or greater. The absorption maximum for each dye bound to DNA is again tabulated (Table 2). […] Where the spectra are not rescaled, the changes in extinction coefficient and absorption wavelength range accompanying binding to DNA are clearly illustrated (FIG. 2).
# [2] = system: calf thymus DNA; experiment: Absorption spectra of dye bound to calf thymus DNA; assay type: binding; conditions: pH 7.4 + DNA, ratio of 50 DNA base pairs per dye molecule or greater
# Procedure: Absorption spectra of solutions of Compounds 1-8 (4 μM) in pH 7.4 buffer (10 mM Tris, 1 mM EDTA and 50 mM NaCl) are recorded on a Perkin-Elmer Lambda 6 spectrophotometer after the addition of sufficient calf thymus DNA (Sigma Chemical Co. D-1501) to yield a ratio of 50 DNA base pairs per dye molecule or greater. The spectra are normalized to a maximum absorbance of 1.0 by numerical rescaling.
# The absorption spectrum of Compound 4 in buffer, prepared as for FIG. 1, is recorded on a Perkin-Elmer Lambda 6 spectrophotometer before and after addition of calf thymus DNA. The spectra are not rescaled, illustrating the changes in extinction coefficient and absorption wavelength range accompanying binding to DNA.
# as §1, §2
# [3] = system: calf thymus DNA; experiment: Fluorescence emission spectra and enhancement on binding to calf thymus DNA; conditions: 0.4 μM dye; for λF (fluorescence maximum), bound to DNA: pH 7.4 + DNA; for Enhancement (QY + DNA)/(QY - DNA): pH 7.4, DNA:fluorophore ratio of 50 bp:1 or greater
# Procedure: Fluorescence emission spectra of solutions (0.4 μM) of Compounds 1-8 in pH 7.4 buffer (10 mM Tris, 1 mM EDTA and 50 mM NaCl), after sufficient calf thymus DNA (Sigma Chemical Co. D-1501) is added to yield a ratio of 50 DNA base pairs per dye molecule or greater, are recorded on an Alphascan spectrofluorometer (PTI Inc.) with excitation at approximately (λA -25 nm) where λA is the absorption maximum of the dye bound to DNA (Table 2).
# Solutions of each of Compounds 1-8 (0.4 μM) in pH 7.4 buffer (10 mM Tris, 1 mM EDTA and 50 mM NaCl) are prepared as above. Fluorescence emission spectra are recorded on an Alphascan spectrofluorometer (PTI Inc.) with excitation at approximately (λA -25 nm) where λA is the absorption maximum of the dye bound to DNA. After sufficient calf thymus DNA (Sigma Chemical Co. D-1501) is added to yield a ratio of 50 DNA base pairs per dye molecule or greater, fluorescence emission spectra are again recorded (Table 2). The spectra are integrated and enhancement ratio (Table 2) is calculated as follows: [formula] in which the ratio (A-)/(A+) is the ratio of the absorbances for the free and bound dye respectively at the excitation wavelength.
# [4] = system: DNA of mouse fibroblast 3T3 cells; experiment: Analysis of cellular DNA content (lysed 3T3 cells, fluorescence); assay type: cell-based
# Procedure: Mouse fibroblast 3T3 cells aliquoted into microtiter plates are subjected to a freeze/thaw protocol to lyse cells and release DNA into solution. Compound 3 in TNE buffer is added to each well and the plates are scanned in a Cytofluor 2350 microtiter plate reader (Millipore Corp.) with excitation at 485 nm and emission detected at 530 nm. […] Treatment of half the wells with 20 μg/ml DNAse 1 for one hour at 37° C. in DNAse 1 buffer (10 mM MnCl2, 50 mM TRIS, pH 7.7) eliminates more than 95% of the fluorescence (filled circles).
# The method of Rago et al. [Analytical Biochemistry 191, 31 (1990)] is adapted for use with the nucleotide-specific stain Compound 3. 3T3 cells (a mouse fibroblast cell line) are aliquoted into 96-well microtiter plates and allowed to adhere over a period of 4 hours. Cell numbers used are between 100 and 100,000 in 100 μl of Dulbecco's Modified Eagle Medium (DMEM). […]
# For fluorescence analysis, 100 μl of distilled water is added to each well and the plates incubated at 37° C. for one hour, frozen at -80° C. then thawed to room temperature. […] 100 μl of 10 μM Compound 3 in TNE buffer (2 M NaCl, 10 mM TRIS, 1 mM EDTA pH 7.4) is added to each well and the plates scanned in a Cytofluor 2350 microtiter plate reader (Millipore Corp.) with excitation at 485 nm and emission detected at 530 nm. […]
# [5] = system: calf thymus DNA; experiment: Dye/nucleic acid affinity: partition coefficient Kp by fluorescence titration with DNA; assay type: binding
# Procedure: The fluorescence intensity (F) determined in a fluorescence plate reader (CytoFluor from Millipore Corporation), is measured versus DNA concentration expressed in terms of base pairs concentration (B). […] In all the titrations, [Dye]/[Base Pair] is always […] than 3 to fulfill the requirements of the partition model.
# The nucleic acid/water partition coefficient (Kp) representing the relative affinity of the dye for DNA is calculated from the fluorescence data according to the following formula:
# 1/F=[5.6·10^7 /(Kp Fo)](1/B)+1/Fo
# where 5.6·10^7 (μM) is water molar concentration; B is the concentration of base pairs; and Fo is the fluorescence enhancement at saturation. Table 3 gives the Kp values of representative dyes via the partition model in the presence of 10% ethanol.
# [6] = system: DNA or RNA; experiment: Optical properties upon binding with DNA or RNA (general statements); conditions: binding to nucleic acid polymers
# Description: The enhanced fluorescence of the dyes in the bound versus unbound state is exemplified in Table 2. In particular, the absorption curve typically shifts to a longer wavelength. Typically, the absorption curve shift is between about 5 and about 20 nm. […] When combined with nucleic acid polymers, the novel dyes of this invention generally have a Stokes shift of between about 15 to about 30 nm. Table 2 includes the excitation and emission maxima (λA and λF respectively) for Compounds 1-8.
# The fluorescence of the novel dyes bound to DNA or RNA is enhanced at least about 9 fold. Typically fluorescence is enhanced at least about 100 fold, sometimes as much as 1000 fold or more, depending on the amount and purity of the dye present in the sample (Table 2). This significant increase in fluorescence intensity reduces or eliminates the problem of background fluorescence due to unbound dye, thus avoiding the necessity to separate the unbound dye before measuring the fluorescence. Even where the dyes are intrinsically fairly fluorescent, however, such that the enhancement in fluorescence quantum yield which results from binding to nucleic acid polymers is less than 10 fold (e.g. Compound 5), the significant shift in absorption maxima that results from such binding (see Table 2, FIG. 2) can be used to quantitatively or qualitatively measure the presence of nucleic acid polymers.
smiles,measurement,setting,value
C[n+]1c(C=C2C=CN(CCC[N+](C)(C)C)C=C2)oc2ccccc21 [Compound 1],εmax (extinction coefficient),[1]; methanol,"77,500 M^-1 cm^-1"
same,λA (absorption maximum),[1]; methanol,423 nm
same,εmax (extinction coefficient),[1]; pH 7.4 buffer,"75,500 M^-1 cm^-1"
same,λA (absorption maximum),[1]; pH 7.4 buffer,423 nm
same,"εmax (extinction coefficient), bound to DNA",[2],"50,100 M^-1 cm^-1"
same,"λA (absorption maximum), bound to DNA",[2],435 nm
same,"λF (fluorescence maximum), bound to DNA",[3],455 nm
same,Enhancement (QY + DNA)/(QY - DNA),[3],456 x
C[n+]1c(C=C2C=CN(CCC[N+](C)(C)C)C=C2)sc2ccccc21 [Compound 2],εmax (extinction coefficient),[1]; methanol,"80,200 M^-1 cm^-1"
same,λA (absorption maximum),[1]; methanol,452 nm
same,εmax (extinction coefficient),[1]; pH 7.4 buffer,"76,200 M^-1 cm^-1"
same,λA (absorption maximum),[1]; pH 7.4 buffer,451 nm
same,"εmax (extinction coefficient), bound to DNA",[2],"58,100 M^-1 cm^-1"
same,"λA (absorption maximum), bound to DNA",[2],462 nm
same,"λF (fluorescence maximum), bound to DNA",[3],481 nm
same,Enhancement (QY + DNA)/(QY - DNA),[3],892 x
C[n+]1c(C=C2C=CN(CCC[N+](C)(C)C)c3ccccc32)oc2ccccc21 [Compound 3],εmax (extinction coefficient),[1]; methanol,"72,600 M^-1 cm^-1"
same,λA (absorption maximum),[1]; methanol,482 nm
same,εmax (extinction coefficient),[1]; pH 7.4 buffer,"66,000 M^-1 cm^-1"
same,λA (absorption maximum),[1]; pH 7.4 buffer,481 nm
same,"εmax (extinction coefficient), bound to DNA",[2],"52,013 M^-1 cm^-1"
same,"λA (absorption maximum), bound to DNA",[2],491 nm
same,"λF (fluorescence maximum), bound to DNA",[3],509 nm
same,Enhancement (QY + DNA)/(QY - DNA),[3],925 x
same,fluorescence eliminated by DNAse 1 treatment,"[4]; 20 μg/ml DNAse 1, one hour, 37° C.",more than 95%
same,fluorescence versus cell number,"[4]; Ex 485 nm, Em 530 nm, TNE buffer",linear increase of fluorescence with cell number
C[n+]1c(C=C2C=CN(CCC[N+](C)(C)C)c3ccccc32)sc2ccccc21 [Compound 4],εmax (extinction coefficient),[1]; methanol,"73,800 M^-1 cm^-1"
same,λA (absorption maximum),[1]; methanol,507 nm
same,εmax (extinction coefficient),[1]; pH 7.4 buffer,"68,500 M^-1 cm^-1"
same,λA (absorption maximum),[1]; pH 7.4 buffer,506 nm
same,"εmax (extinction coefficient), bound to DNA",[2],"62,800 M^-1 cm^-1"
same,"λA (absorption maximum), bound to DNA",[2],515 nm
same,"λF (fluorescence maximum), bound to DNA",[3],531 nm
same,Enhancement (QY + DNA)/(QY - DNA),[3],1806 x
same,effect of ethanol on DNA affinity (Kp),[5]; 10% ethanol,ethanol decreases the DNA affinity
same,"apparent affinity Kp, effect of dye concentration","[5]; binding buffer without ethanol, 0.1 vs 0.22 μM dye",larger with 0.1 μM dye than with 0.22 μM
C[n+]1c(C=CC=CC=C2C=CN(CCC[N+](C)(C)C)C=C2)oc2ccccc21 [Compound 5],λA (absorption maximum),[1]; methanol,525 nm
same,λA (absorption maximum),[1]; pH 7.4 buffer,523 nm
same,"λA (absorption maximum), bound to DNA",[2],532 nm
same,"λF (fluorescence maximum), bound to DNA",[3],562 nm
same,Enhancement (QY + DNA)/(QY - DNA),[3],9 x
same,enhancement in fluorescence quantum yield on binding,[6],less than 10 fold
C[n+]1c(C=CC=CC=C2C=CN(CCC[N+](C)(C)C)C=C2)sc2ccccc21 [Compound 6],λA (absorption maximum),[1]; methanol,564 nm
same,λA (absorption maximum),[1]; pH 7.4 buffer,560 nm
same,"λA (absorption maximum), bound to DNA",[2],575 nm
same,"λF (fluorescence maximum), bound to DNA",[3],599 nm
same,Enhancement (QY + DNA)/(QY - DNA),[3],29 x
C[n+]1c(C=CC=C2C=CN(CCC[N+](C)(C)C)c3ccccc32)oc2ccccc21 [Compound 7],εmax (extinction coefficient),[1]; methanol,"133,100 M^-1 cm^-1"
same,λA (absorption maximum),[1]; methanol,600 nm
same,εmax (extinction coefficient),[1]; pH 7.4 buffer,"122,000 M^-1 cm^-1"
same,λA (absorption maximum),[1]; pH 7.4 buffer,596 nm
same,"εmax (extinction coefficient), bound to DNA",[2],"100,100 M^-1 cm^-1"
same,"λA (absorption maximum), bound to DNA",[2],612 nm
same,"λF (fluorescence maximum), bound to DNA",[3],631 nm
same,Enhancement (QY + DNA)/(QY - DNA),[3],155 x
C[n+]1c(C=CC=C2C=CN(CCC[N+](C)(C)C)c3ccccc32)sc2ccccc21 [Compound 8],εmax (extinction coefficient),[1]; methanol,"143,200 M^-1 cm^-1"
same,λA (absorption maximum),[1]; methanol,635 nm
same,εmax (extinction coefficient),[1]; pH 7.4 buffer,"98,200 M^-1 cm^-1"
same,λA (absorption maximum),[1]; pH 7.4 buffer,631 nm
same,"εmax (extinction coefficient), bound to DNA",[2],"102,000 M^-1 cm^-1"
same,"λA (absorption maximum), bound to DNA",[2],642 nm
same,"λF (fluorescence maximum), bound to DNA",[3],661 nm
same,Enhancement (QY + DNA)/(QY - DNA),[3],80 x
